In assay [1] the target is T1, 5′-nucleotidase (Mus musculus, UniProt Q61503).
T1 construct: endogenous in cells; host or cells: primary hepatocytes from C57BL/6J mice
T1 sequence (Q61503 29-551): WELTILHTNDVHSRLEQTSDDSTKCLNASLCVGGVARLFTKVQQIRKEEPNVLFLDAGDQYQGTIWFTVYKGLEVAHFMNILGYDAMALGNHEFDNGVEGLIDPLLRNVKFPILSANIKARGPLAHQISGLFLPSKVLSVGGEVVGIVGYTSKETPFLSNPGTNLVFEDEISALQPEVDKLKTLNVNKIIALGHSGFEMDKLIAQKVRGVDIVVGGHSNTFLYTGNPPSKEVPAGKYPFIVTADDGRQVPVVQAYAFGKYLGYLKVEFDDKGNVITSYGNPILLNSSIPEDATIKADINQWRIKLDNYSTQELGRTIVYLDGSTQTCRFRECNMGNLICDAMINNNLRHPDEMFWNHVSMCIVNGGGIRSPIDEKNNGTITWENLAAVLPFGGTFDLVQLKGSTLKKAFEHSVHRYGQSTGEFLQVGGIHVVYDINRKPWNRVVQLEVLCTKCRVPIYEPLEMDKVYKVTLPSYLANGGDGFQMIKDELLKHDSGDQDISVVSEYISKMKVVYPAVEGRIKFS
Nature of the assay: 5'-nucleotidase activity assay in intact primary hepatocytes (adenosine from AMP by HPLC). It is filed as cell-based. Conditions: 500 μM AOPCP, 100 μM AMP. On the procedure:
The amounts of adenosine produced were determined by HPLC. […] Silencing efficiencies were evaluated by quantitative RT-PCR.
AOPCP inhibits 5′-nucleotidase activity by 97%.

Assay [2] deals with GLP-1 secretion from the ileum. Put plainly: GLP-1 secretion from ex vivo ileal explants (ELISA). Conditions: ileal explants of 24-month-old female B6 mice, 20 μM, 4 h, vs 0.2% DMSO. It is filed as cell-based, mouse. On the procedure:
GLP-1 measurement in plasma and in supernatants of ex vivo small intestine explant cultures. Blood was collected after 6 h refeeding (from 10 am to 4 pm) following 24 h fasting (from 9 am to 9 am) from tail veins of 2- or 24-month-old female Slc12a8 knockdown mice and their controls using EDTA-coated tubes. Blood was immediately chilled on ice, centrifuged at 5,000×g at 4° C., and plasma samples were stored at −80° C. Small intestines from gut-specific Slc12a8 knockdown female mice or 12-month-old Slc12a8KO female mice were cut into three segments of the duodenum, jejunum, and ileum with length ratios of 1:3:2 (Wang, H. H., et al., Hepatology, 2007, 45, 998-1006). […] GLP-1 levels in plasma and media were measured by GLP-1 Total ELISA Kit (EMD Millipore, MO) following the manufacturer's instruction. GLP-1 values were normalized by total protein content analyzed by Bradford assay.
The involvement of SIRT1 (Yoon, M. J., et al., Cell Metab., 2015 21, 706-717) and SIRT6 (Jiang, H. et al., Nature, 2013, 496, 110-113) in the observed increase in GLP-1 secretion was examined. […] GLP-1 levels were measured by ELISA in the supernatants from ex vivo ileal explants of 24-month-old female B6 mice cultured with 0.2% DMSO, 20 µM EX527 or 20 μM STK665401 for 4 h (n=3 mice, analyzed using ANOVA with Tukey's test).
(In general: ELISA stands for enzyme-linked immunosorbent assay.)

Take `Nc1ncnc2c1ncn2[C@@H]1O[C@H](COP(=O)(O)CP(=O)(O)O)[C@@H](O)[C@H]1O` [AOPCP, adenosine-5′-[α,β-methylene]diphosphate]: in assay [1], the “inhibition of 5′-nucleotidase activity” value was 97%. On to `Cn1c(=O)c2cc(S(=O)(=O)Nc3ccc(Cc4ccncc4)cc3)ccc2n(C)c1=O` [STK665401], for which the GLP-1 secretion entry in assay [2] was “not”.

These data come from patent US12337010B2, “Compositions and methods of treatment using nicotinamide mononucleotide” (Washington University, priority 2017, dated 2025).
